ChEMBL document CHEMBL1157712, “Hit to lead account of the discovery of bisbenzamide and related ureidobenzamide inhibitors of Rho kinase” (J Med Chem, 2010)
pIC50: −log10 of the molar value. ≈ marks a conversion by molar mass, not a printed value.

What was measured:
[1] = target: T1, Rho-associated protein kinase 2 (Homo sapiens, UniProt O75116)
Description: (§2) Inhibition of human ROCK2 by homogenous luciferase assay

[2] = Solubility at pH 7.4; assay type: physicochemical; conditions: buffer
Cytochrome P450 3A4 [3] = target: T2, Cytochrome P450 3A4 (Homo sapiens, UniProt P08684); assay: Inhibition of human CYP3A4 by LCMS/MS assay; assay type: ADME
Cytochrome P450 2C9 [4] = target: T3, Cytochrome P450 2C9 (Homo sapiens, UniProt P11712); assay: Inhibition of human CYP2C9 by LCMS/MS assay; assay type: ADME
[5] = target: T1, Rho-associated protein kinase 2; assay: Inhibition of human ROCK2 by IMAP assay
[6] = (§1) Permeability from apical to basolateral side in human Caco-2 cells; assay type: ADME, cell-based; conditions: Caco-2, read-out: permeability
[7] = Permeability from basolateral to apical side in human Caco-2 cells; assay type: ADME, cell-based; conditions: read-out: permeability
Cytochrome P450 1A2 [8] = target: T4, Cytochrome P450 1A2 (Homo sapiens, UniProt P05177); assay: Inhibition of human CYP1A2 by LCMS/MS assay; assay type: ADME
T4 sequence (P05177 whole entry): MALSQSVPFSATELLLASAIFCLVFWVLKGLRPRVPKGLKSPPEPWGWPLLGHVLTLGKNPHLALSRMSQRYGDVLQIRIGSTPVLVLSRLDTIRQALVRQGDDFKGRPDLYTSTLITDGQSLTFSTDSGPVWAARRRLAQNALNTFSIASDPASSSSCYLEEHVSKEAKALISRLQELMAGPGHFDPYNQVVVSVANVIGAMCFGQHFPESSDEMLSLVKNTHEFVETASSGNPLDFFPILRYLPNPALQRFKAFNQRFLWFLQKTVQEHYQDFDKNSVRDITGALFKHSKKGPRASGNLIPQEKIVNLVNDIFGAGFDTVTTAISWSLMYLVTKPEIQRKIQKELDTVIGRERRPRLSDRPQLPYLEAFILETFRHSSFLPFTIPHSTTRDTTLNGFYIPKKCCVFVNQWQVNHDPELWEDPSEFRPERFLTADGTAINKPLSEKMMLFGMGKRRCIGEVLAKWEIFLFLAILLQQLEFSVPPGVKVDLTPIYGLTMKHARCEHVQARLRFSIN

[9] = Membrane permeability by PAMPA assay; assay type: ADME; conditions: read-out: permeability
Cytochrome P450 2D6 [10] = target: T5, Cytochrome P450 2D6 (Homo sapiens, UniProt P10635); assay: Inhibition of human CYP2D6 by LCMS/MS assay; assay type: ADME
[11] = target: T1, Rho-associated protein kinase 2; remark: listed apart in the source
Description: as §2

Cytochrome P450 3A4 [12] = target: T2, Cytochrome P450 3A4; assay: Inhibition of human CYP3A4 using BQ substrate by fluorescence assay; assay type: ADME
Cytochrome P450 1A2 [13] = target: T4, Cytochrome P450 1A2; assay: Inhibition of human CYP1A2 by fluorescence assay; assay type: ADME
Caco-2 = assay: as §1; assay type: ADME, cell-based; conditions: caco-2, BLD = below limit of detection
Cytochrome P450 3A4 [14] = target: T2, Cytochrome P450 3A4; assay: Inhibition of human CYP3A4 using BFC substrate by fluorescence assay; assay type: ADME
[15] = Metabolic stability in human liver microsomes assessed as half life; assay type: ADME, Microsome
Cytochrome P450 2C19 = Cytochrome P450 2C19 (Homo sapiens, UniProt P33261); assay: Inhibition of human CYP2C19 by fluorescence assay; assay type: ADME
Cytochrome P450 2D6 [16] = target: T5, Cytochrome P450 2D6; assay: Inhibition of human CYP2D6 by fluorescence assay; assay type: ADME
[17] = target: Serine/threonine-protein kinase N2 (Homo sapiens, UniProt Q16513)
Cytochrome P450 2C9 [18] = target: T3, Cytochrome P450 2C9; assay: Inhibition of human CYP2C9 by fluorescence assay; assay type: ADME
[19] = target: Serine/threonine-protein kinase MRCK beta (Homo sapiens) (UniProt Q9Y5S2); assay: Inhibition of CDC42BPB
[20] = target: T6, Protein kinase C epsilon type (Homo sapiens, UniProt Q02156); assay: Inhibition of PKCepsilon
T6 sequence (Q02156 whole entry): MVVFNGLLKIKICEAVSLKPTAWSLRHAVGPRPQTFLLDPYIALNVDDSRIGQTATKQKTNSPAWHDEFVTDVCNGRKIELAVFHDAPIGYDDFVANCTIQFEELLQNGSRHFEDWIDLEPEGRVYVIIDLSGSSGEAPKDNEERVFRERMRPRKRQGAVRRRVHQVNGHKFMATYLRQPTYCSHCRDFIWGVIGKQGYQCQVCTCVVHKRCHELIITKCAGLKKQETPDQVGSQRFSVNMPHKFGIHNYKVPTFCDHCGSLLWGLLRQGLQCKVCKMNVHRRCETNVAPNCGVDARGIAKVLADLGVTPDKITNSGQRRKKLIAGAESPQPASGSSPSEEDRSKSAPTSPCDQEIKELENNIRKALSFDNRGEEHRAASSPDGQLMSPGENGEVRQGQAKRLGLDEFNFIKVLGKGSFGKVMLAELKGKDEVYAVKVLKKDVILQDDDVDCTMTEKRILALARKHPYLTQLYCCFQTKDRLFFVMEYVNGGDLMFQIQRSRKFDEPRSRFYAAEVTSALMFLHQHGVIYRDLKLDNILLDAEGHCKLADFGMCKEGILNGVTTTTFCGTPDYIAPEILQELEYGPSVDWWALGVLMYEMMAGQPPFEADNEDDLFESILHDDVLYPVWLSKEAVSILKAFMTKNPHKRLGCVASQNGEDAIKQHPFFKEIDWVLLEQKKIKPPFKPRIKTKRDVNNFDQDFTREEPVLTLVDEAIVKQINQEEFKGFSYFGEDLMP

Rattus norvegicus = species on record: Rattus norvegicus; assay: Induction of relaxation activity of phenylephrine-induced Sprague-Dawley rat aortic ring contraction; assay type: functional; conditions: Aorta
ROCK1 (Homo sapiens) = assay: Inhibition of ROCK1

T3 sequence (P11712 whole entry): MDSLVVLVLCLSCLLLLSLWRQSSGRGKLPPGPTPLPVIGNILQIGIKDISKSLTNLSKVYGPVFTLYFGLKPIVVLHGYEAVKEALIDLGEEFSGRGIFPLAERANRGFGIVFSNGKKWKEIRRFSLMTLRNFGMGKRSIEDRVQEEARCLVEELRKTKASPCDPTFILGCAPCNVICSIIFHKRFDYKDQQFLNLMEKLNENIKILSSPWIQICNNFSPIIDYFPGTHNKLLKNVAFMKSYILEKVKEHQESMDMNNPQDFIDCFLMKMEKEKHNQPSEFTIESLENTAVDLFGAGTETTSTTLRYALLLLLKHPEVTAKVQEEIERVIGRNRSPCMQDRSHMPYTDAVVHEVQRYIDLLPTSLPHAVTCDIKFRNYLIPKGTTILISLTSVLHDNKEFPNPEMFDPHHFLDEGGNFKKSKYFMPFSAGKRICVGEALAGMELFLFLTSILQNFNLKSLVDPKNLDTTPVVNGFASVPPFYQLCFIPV
T1 sequence (O75116 whole entry): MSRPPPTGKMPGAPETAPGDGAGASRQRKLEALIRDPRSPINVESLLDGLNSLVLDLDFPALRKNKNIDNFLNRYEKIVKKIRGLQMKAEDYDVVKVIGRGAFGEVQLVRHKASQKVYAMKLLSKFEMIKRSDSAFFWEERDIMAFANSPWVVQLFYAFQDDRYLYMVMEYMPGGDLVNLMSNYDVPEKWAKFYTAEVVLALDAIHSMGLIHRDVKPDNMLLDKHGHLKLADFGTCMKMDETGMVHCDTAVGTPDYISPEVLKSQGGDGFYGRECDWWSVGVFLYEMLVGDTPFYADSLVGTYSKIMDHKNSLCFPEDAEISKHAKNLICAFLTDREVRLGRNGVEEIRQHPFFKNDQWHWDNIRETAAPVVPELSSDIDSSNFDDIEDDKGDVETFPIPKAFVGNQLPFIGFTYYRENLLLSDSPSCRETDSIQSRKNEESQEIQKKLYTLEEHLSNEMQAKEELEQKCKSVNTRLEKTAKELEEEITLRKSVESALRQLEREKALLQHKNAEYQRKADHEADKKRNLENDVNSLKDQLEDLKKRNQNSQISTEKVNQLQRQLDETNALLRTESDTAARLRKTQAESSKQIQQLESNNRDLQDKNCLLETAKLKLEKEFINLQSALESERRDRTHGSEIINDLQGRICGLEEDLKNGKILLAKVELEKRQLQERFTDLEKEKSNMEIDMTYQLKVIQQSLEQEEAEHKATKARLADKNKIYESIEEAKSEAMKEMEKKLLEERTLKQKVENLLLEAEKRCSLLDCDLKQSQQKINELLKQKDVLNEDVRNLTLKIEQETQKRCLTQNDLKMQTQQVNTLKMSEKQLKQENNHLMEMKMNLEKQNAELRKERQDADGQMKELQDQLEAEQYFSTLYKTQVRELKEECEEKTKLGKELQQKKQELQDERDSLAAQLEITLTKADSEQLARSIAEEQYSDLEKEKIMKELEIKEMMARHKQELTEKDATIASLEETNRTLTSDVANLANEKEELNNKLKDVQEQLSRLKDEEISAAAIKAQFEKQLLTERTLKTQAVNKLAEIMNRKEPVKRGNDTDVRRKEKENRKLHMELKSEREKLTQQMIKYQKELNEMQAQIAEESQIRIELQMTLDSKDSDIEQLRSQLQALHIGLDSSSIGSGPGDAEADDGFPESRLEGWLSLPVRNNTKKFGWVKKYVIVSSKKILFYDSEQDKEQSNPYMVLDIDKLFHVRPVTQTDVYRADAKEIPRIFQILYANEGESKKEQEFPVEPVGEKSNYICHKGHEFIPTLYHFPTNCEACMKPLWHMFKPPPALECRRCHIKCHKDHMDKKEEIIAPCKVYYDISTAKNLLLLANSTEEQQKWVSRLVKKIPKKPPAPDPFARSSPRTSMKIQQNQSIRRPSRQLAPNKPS
T5 sequence (P10635 whole entry): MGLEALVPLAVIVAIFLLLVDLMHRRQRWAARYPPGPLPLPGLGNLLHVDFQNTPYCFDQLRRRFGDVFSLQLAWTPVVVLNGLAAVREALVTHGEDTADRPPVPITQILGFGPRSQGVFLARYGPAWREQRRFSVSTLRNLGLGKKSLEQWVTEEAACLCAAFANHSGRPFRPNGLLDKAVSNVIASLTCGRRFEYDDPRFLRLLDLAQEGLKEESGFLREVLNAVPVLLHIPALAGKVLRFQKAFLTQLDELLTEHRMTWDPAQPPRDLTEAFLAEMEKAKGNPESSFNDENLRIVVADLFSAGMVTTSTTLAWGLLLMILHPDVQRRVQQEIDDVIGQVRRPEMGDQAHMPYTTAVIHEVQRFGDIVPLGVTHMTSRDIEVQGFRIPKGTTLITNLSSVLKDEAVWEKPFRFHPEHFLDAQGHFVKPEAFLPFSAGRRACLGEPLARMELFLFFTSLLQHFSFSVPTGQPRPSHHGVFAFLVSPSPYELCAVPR
T2 sequence (P08684 whole entry): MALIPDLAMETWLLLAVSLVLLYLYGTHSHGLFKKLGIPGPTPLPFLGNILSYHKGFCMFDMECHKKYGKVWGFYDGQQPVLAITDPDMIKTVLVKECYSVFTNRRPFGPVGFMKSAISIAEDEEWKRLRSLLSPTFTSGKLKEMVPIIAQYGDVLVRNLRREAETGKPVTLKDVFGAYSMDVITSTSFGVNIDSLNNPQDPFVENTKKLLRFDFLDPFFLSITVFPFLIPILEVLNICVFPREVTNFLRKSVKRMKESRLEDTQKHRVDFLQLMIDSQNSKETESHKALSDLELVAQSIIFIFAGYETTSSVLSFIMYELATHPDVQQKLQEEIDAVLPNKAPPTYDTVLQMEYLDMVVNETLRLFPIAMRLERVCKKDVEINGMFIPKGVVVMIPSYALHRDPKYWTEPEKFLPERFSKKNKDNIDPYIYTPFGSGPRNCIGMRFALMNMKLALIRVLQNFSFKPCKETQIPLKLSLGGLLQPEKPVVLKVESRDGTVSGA
Sequence of Serine/threonine-protein kinase N2 (Q16513 whole entry): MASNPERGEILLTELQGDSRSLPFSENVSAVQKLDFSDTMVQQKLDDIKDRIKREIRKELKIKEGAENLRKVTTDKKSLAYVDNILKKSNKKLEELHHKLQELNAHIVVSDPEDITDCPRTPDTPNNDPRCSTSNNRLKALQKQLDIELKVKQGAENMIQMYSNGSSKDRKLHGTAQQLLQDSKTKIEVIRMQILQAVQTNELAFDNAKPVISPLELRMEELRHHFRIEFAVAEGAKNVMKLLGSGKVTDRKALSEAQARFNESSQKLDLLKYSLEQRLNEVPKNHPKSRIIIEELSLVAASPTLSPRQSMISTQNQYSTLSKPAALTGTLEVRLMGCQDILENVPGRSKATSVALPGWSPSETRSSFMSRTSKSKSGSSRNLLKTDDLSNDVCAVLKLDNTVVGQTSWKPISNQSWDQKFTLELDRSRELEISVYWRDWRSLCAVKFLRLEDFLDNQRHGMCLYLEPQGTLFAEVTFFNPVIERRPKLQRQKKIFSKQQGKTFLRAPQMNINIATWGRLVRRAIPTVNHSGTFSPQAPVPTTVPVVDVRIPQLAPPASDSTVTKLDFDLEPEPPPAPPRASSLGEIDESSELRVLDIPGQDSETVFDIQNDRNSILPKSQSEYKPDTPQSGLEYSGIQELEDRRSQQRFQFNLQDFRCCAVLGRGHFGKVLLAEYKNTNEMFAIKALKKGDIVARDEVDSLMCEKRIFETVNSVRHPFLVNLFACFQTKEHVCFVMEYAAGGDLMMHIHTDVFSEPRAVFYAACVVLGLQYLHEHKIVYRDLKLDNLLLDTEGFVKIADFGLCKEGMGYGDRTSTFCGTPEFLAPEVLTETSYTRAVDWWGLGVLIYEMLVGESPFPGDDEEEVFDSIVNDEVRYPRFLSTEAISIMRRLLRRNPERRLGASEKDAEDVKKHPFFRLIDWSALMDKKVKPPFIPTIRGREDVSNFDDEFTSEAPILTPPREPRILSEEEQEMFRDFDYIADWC
Sequence of Cytochrome P450 2C19 (P33261 whole entry): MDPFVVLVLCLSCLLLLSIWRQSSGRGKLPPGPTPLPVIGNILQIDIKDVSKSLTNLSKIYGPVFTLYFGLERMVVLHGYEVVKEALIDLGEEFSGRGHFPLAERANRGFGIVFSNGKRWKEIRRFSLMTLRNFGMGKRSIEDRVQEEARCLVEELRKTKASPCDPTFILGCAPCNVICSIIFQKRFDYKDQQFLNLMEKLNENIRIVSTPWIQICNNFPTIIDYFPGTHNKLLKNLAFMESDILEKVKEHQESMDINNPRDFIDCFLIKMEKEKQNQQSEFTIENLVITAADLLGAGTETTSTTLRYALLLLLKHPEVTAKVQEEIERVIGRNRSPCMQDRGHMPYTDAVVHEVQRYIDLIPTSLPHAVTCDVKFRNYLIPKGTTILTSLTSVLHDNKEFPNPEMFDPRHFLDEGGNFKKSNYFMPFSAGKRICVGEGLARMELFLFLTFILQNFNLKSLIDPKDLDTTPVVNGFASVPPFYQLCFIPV

SMILES: COc1ccc(CNC(=O)c2cccc(C(=O)NCCC3CCCNC3)c2)cc1OC (centres undefined)
- pIC50 [1]: < 2.22

SMILES: COc1ccc(C(=O)NCc2cccc(C(=O)Nc3ccc(CN(C)C)cc3)c2)cc1C
- solubility [2]: > 88 µg/mL
- pIC50 (Cytochrome P450 3A4 [3]): 4.87
- pIC50 (Cytochrome P450 2C9 [4]): 4.90
- pIC50 [5]: 6.18
- Papp A→B [6]: 7.9 ×10⁻⁶ cm/s
- Papp B→A [7]: 30.8 ×10⁻⁶ cm/s
- pIC50 (Cytochrome P450 1A2 [8]): < 4.52
- Papp [9]: 21 ×10⁻⁶ cm/s
- pIC50 (Cytochrome P450 2D6 [10]): < 4.52

SMILES: N#Cc1cccc(NC(=O)NCc2cccc(C(=O)NCC3CCCO3)c2)c1 (racemic)
- pIC50 [1]: 5.46

SMILES: COc1ccc(NC(=O)Cc2cccc(NC(=O)CCC3CCCNC3)c2)cc1OC (centres undefined)
- pIC50 [11]: 4.43

SMILES: N#Cc1ccc(NC(=O)NCc2cccc(C(=O)NCCC3CCNCC3)c2)cc1
- pIC50 [11]: 4.19

SMILES: COc1cccc(C(=O)NCc2cccc(C(=O)Nc3ccc(CN(C)C)cc3)c2)c1
- pIC50 [5]: < 5.15
- pIC50 [1]: < 5.15

SMILES: COc1ccc(C(=O)NCc2cccc(C(=O)NCCc3ccncc3)c2)cc1
- pIC50 [1]: < 2.15

SMILES: CN(C)Cc1ccc(NC(=O)c2cccc(CNC(=O)Nc3ccc(C(N)=O)c(Cl)c3)c2)cc1
- pIC50 [5]: 6.74
- pIC50 [11]: 4.13

SMILES: N#Cc1ccc(NC(=O)NCc2cccc(C(=O)Nc3ccc4c(c3)CNCC4)c2)cc1
- solubility [2]: > 100 µg/mL
- pIC50 [5]: 7.32
- pIC50 (Cytochrome P450 3A4 [12]): < 4.52
- pIC50 (Cytochrome P450 1A2 [13]): < 4.52
- permeability (Caco-2): BLD
- pIC50 (Cytochrome P450 3A4 [14]): 5.23
- half-life [15]: 3.15 h
- Papp B→A [7]: 8.8 ×10⁻⁶ cm/s
- pIC50 (Cytochrome P450 2C19): < 4.52
- pIC50 (Cytochrome P450 2D6 [16]): < 4.52
- pIC50 [17]: 5.80
- pIC50 (Cytochrome P450 2C9 [18]): 4.66
- pIC50 [19]: < 5.30
- pIC50 [20]: < 5.30
- pIC50 (Rattus norvegicus): 5.07
- pIC50 [1]: 7.85

SMILES: COc1ccc(NC(=O)Nc2cccc(C(=O)NCCC3CCCNC3)c2)cc1OC (centres undefined)
- pIC50 [1]: < 2.15

SMILES: O=S(=O)(c1cccc2cnccc12)N1CCCNCC1 [FASUDIL]
- pIC50 (Rattus norvegicus): 5.21

SMILES: O=C(NCCc1ccncc1)c1cccc(CNC(=O)c2ccc3c(c2)OCO3)c1
- pIC50 [1]: < 2.15

SMILES: COc1ccc(C(=O)NCc2cccc(C(=O)NCCC3CCNCC3)c2)cc1OC
- solubility [2]: 67 µg/mL (≈ 157 µM)
- pIC50 (Cytochrome P450 3A4 [12]): < 4.52
- pIC50 (Cytochrome P450 1A2 [13]): < 4.52
- Papp A→B [6]: 0.1 ×10⁻⁶ cm/s
- pIC50 (Cytochrome P450 3A4 [14]): < 4.52
- half-life [15]: 1.45 h
- Papp B→A [7]: 0.6 ×10⁻⁶ cm/s
- pIC50 (Cytochrome P450 2C19): < 4.52
- pIC50 (Cytochrome P450 2D6 [16]): < 4.52
- pIC50 [17]: < 5.30
- Papp [9]: 0.6 ×10⁻⁶ cm/s
- pIC50 (Cytochrome P450 2C9 [18]): < 4.52
- pIC50 [19]: < 5.30
- pIC50 [20]: < 5.30

SMILES: N#Cc1ccc(NC(=O)NCc2cccc(C(=O)NCCC3CCCNC3)c2)cc1 (centres undefined)
- pIC50 [17]: 5.77
- pIC50 (ROCK1 (Homo sapiens)): 7.51
- pIC50 [19]: < 5.30
- pIC50 [20]: < 5.30
- pIC50 [1]: 7.74

SMILES: CN(C)Cc1ccc(NC(=O)c2cccc(CNC(=O)Nc3ccc(C#N)cc3)c2)cc1
- pIC50 [5]: 6.80
- pIC50 [17]: < 5.30
- pIC50 [19]: < 5.30
- pIC50 [20]: < 5.30
- pIC50 [1]: 7.19

SMILES: COc1ccc(C(=O)NCc2cccc(C(=O)NCC3CCCO3)c2)cc1OC (racemic)
- pIC50 [11]: 5.92

SMILES: COc1ccc(C(=O)NCc2cccc(C(=O)Nc3ccc(CO)cc3)c2)cc1OC
- solubility [2]: 48 µg/mL (≈ 114 µM)
- pIC50 (Cytochrome P450 3A4 [3]): < 4.52
- pIC50 (Cytochrome P450 2C9 [4]): < 4.52
- Papp A→B [6]: 0.6 ×10⁻⁶ cm/s
- half-life [15]: 0.683 h
- Papp B→A [7]: 16.1 ×10⁻⁶ cm/s
- pIC50 (Cytochrome P450 1A2 [8]): < 4.52
- Papp [9]: 10 ×10⁻⁶ cm/s
- pIC50 (Cytochrome P450 2D6 [10]): < 4.52
- pIC50 [1]: 6.06

SMILES: COc1ccc(C(=O)Nc2cccc(C(=O)NCCC3CCCNC3)c2)cc1OC (centres undefined)
- pIC50 [1]: < 2.22

SMILES: N#Cc1cccc(NC(=O)NCc2cccc(C(=O)NCCC3CCCNC3)c2)c1 (centres undefined)
- pIC50 [17]: < 5.30
- pIC50 [19]: < 5.30
- pIC50 [20]: < 5.30
- pIC50 [1]: 7.05

SMILES: COc1ccc(C(=O)NCc2cccc(NC(=O)CCC3CCCNC3)c2)cc1OC (centres undefined)
- pIC50 [17]: < 5.30
- pIC50 (ROCK1 (Homo sapiens)): 6.72
- pIC50 [19]: < 5.30
- pIC50 [20]: < 5.30
- pIC50 [1]: 7.14

SMILES: CN(C)Cc1ccc(NC(=O)c2cccc(CNC(=O)Nc3cccc(C(N)=O)c3)c2)cc1
- pIC50 [5]: 6.54
- pIC50 [11]: 3.62
